Assay results from PMC7011920, “Synthesis and biological evaluation of stilbene derivatives coupled to NO donors as potential antidiabetic agents” (Journal of Enzyme Inhibition and Medicinal Chemistry, 2018).

Columns and labels:
aldose reductase (ALR2) = target: T1, aldose reductase (ALR2) (Mus musculus, UniProt P45376); test: In vitro ALR2 inhibitory activity (crude enzyme, NADPH decrease at 340 nm); format: biochemical, mice; settings: read-out: IC50 value, ALR2 inhibitory activity
T1 construct: After homogenisation and centrifugation, the crude ALR2 from mice was obtained; from tissue
Procedure: The enzyme aldose reductase (ALR2) is a member of the aldo–keto reductase superfamily. The development and progression of chronic diabetic complications are confirmed to be quite related to the activation and/or over expression of ALR2[25]. Therefore, ALR2 inhibitors may play a critical role in preventing or treating these complications.
After homogenisation and centrifugation, the crude ALR2 from mice was obtained. The inhibitory activity of the compounds on ALR2 was carried out using crude enzyme and different concentrations of the compounds (1–1000 µg/ml) in 200 mM PBS (pH 6.2) containing 0.10 mM NADPH. The reaction was initiated by addition of glyceraldehyde and the decrease in the optical density of NADPH at 340 nm was recorded for 3 min. All experiments were run in triplicate. IC50 of the compounds was calculated. The flavonoid quercetin was used as a reference in the ALR2 assay.

α-Glucosidase = target: T2, α-Glucosidase (Saccharomyces cerevisiae, UniProt P53341); test: biochemical; settings: read-out: IC50 value, α-Glucosidase inhibitory activity
T2 construct: purchased Sigma Aldrich G0660-750UN
T2 sequence (P53341 whole entry): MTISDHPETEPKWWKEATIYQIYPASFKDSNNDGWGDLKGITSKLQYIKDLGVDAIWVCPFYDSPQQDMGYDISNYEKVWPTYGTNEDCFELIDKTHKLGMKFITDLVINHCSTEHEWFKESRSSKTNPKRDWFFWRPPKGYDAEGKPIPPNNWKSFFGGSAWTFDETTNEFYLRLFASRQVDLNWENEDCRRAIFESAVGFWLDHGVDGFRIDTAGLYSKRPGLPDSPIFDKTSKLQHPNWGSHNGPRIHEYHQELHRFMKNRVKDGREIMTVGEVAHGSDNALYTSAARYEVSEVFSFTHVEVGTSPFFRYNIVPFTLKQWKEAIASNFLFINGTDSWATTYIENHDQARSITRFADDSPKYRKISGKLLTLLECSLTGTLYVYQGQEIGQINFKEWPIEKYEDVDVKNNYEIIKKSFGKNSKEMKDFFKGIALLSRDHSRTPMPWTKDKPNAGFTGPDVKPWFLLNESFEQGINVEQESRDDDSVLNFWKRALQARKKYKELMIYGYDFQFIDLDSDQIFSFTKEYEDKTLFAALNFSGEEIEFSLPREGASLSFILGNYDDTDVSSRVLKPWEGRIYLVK
Procedure: α-Glucosidases, enzymes anchored in the brush border of the small intestine, are responsible for catalysing the hydrolysis of carbohydrates.
α-Glucosidase (G0660-750UN, Sigma Aldrich, St. Louis, MO) and 4-nitrophenyl α-D-glucopyranoside (PNPG, Macklin) were dissolved in phosphate buffer (pH 6.8, 100 mM), and the test compounds were dissolved in DMSO solution. The experiment was divided into blank group, control group, sample blank group and sample group. The reagents were loaded in 96-well plates at the dose of the table (Table 3). The solution was bathed in 37 °C water for 10 min, after the end, enzyme solution was added. After reaction at 37 °C for 20 min, 70 µL Na2CO3 solution ([…]) was added to stop the reaction. All experiments were run in triplicate. […] Since PNPG can produce glucose and p-nitrophenol (PNP) under the action of α-glucosidase, PNP has the greatest absorption at 405 nm. The absorbance was determined by the microplate reader, and the inhibition rate of α-glucosidase and the IC50 value of each sample were calculated according to the formula. Inhibition rate %={[(AC−AB)−(AS−ASB)]/(AC−AB)}×100% where AC is the absorbance of control group; AB is the absorbance of blank group; AS is the absorbance of sample group; ASB is the absorbance of sample blank group.

COc1cc(/C=C/c2ccc(OCCCCCCO[N+](=O)[O-])cc2)cc(OC)c1 [3c]
IC50 (aldose reductase (ALR2)): 299 ± 22.6 µM
IC50 (α-Glucosidase): 83.1 ± 16.2 µM
